The values that follow come from publication PMC5829162, “Rational Design, Synthesis and Biological Evaluation of Pyrimidine-4,6-diamine derivatives as Type-II inhibitors of FLT3 Selective Against c-KIT” (Scientific Reports, 2018).

For this experiment, the target named is T1, FLT3 kinase (Homo sapiens, UniProt P36888).
T1 construct: purchased Invitrogen
T1 sequence (P36888 27-993): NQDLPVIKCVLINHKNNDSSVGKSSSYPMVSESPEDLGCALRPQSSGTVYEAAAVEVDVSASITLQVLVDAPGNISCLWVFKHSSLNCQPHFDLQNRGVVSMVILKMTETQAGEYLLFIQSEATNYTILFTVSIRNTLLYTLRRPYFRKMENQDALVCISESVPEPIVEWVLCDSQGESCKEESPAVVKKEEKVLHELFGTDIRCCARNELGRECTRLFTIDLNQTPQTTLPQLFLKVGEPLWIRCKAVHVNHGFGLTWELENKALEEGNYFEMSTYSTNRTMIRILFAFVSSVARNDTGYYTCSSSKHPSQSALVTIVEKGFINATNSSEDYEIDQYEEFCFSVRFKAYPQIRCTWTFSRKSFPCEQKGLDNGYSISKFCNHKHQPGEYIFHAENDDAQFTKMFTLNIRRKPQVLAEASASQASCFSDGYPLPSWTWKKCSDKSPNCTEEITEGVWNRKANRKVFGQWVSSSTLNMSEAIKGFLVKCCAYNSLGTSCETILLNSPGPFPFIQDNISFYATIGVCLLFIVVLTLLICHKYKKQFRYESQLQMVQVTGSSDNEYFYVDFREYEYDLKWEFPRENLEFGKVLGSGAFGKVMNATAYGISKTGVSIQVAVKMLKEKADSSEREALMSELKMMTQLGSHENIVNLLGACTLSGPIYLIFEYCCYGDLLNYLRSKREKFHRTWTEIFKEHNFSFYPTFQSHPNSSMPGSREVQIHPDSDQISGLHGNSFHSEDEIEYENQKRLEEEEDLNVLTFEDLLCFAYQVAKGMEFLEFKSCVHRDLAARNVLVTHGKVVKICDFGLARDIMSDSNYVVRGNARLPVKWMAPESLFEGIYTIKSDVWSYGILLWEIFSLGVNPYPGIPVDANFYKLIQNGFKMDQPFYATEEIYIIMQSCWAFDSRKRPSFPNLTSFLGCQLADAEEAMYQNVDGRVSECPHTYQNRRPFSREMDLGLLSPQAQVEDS
As to the kind of experiment: Mechanism of inhibition (pre-incubation time and ATP concentration), FLT3. Format: biochemical. The procedure:
Compound 13a was pre-incubated with the FLT3 kinase at 1, 3, 5, 10, 20, 30, 50, and 90 minutes. After the pre-incubation, IC50 values at each incubation interval was determined according to the procedure outlined in section 4.3. In a separate experiment, compound 13a was pre-incubated with the FLT3 kinase for 60 minutes. […] To determine IC50 values at each concentration of ATP, the same procedure was followed as outlined in section S10.
S10. Biochemical Inhibition Assay:1,2 Kinase activity was measured in a microfluidics assay that monitors the separation of a phosphorylated product from substrate. The assay was run using a 12-sipper chip on a Caliper EZ Reader II (PerkinElmer®, Walthman, USA) with separation buffer (100 mM HEPES, 10 mM EDTA, 0.015% Brij-35, 0.1% CR-3 [PerkinElmer®, Walthman, USA]). In 96-well polypropylene plates (Greiner, Frickenhausen, Germany) compound stocks (20 mM in DMSO) were diluted into kinase buffer (50 mM HEPES, 0.075% […]
dilutions (2 mM–6.32 nM). After, 1 μL was transferred into a 384-well polypropylene assay plate (Greiner, Frickenhausen, Germany). The FLT3 enzyme (Invitrogen™, Grand Island, USA) was diluted in kinase buffer to a concentration of 2 nM and 5 µL of the enzyme mixture was transferred to the assay plate. The inhibitors/FLT3 enzyme were incubated for 60 minutes with minor shaking. A substrate mix was prepared containing ATP (Ambresco®, Solon, USA) and 5FAM tagged FLT3 peptide (peptide #22, 5’ FAM-EPLYWSFPA, PerkinElmer®, Walthman, USA) dissolved in kinase buffer, and 5 µL of the substrate mix was added to the assay plate.
Running concentrations were as follows: ATP (190 µM), peptide (1.5 µM), compound 12-point ½log dilutions (0.2 mM–0.632 nM). For positive control, no inhibitor was added. For negative control, no enzyme was added. For running control, quizartinib was utilized. The plate was run until 10-20% conversion based on the positive control wells. The following separation conditions were utilized: upstream voltage -500V; downstream voltage, -1900V; chip pressure - 0.8. Percent inhibition was measured for each well comparing starting peptide to phosphorylated product peaks relative to the baseline. Dose response curves, spanning the IC50 dose, were generated in GraphPad Prisim 6 and fit to an exponential one-phase decay line and IC50 values were obtained from the half-life value of the curve. IC50 values were generated in duplicate and error was calculated from the standard deviation between values.
S11. Mechanism of Inhibition Procedure: Compound 13a was pre-incubated with the FLT3 kinase at 1, 3, 5, 10, 20, 30, 50, and 90 minutes. After the pre -incubation, IC50 values at each incubation interval was determined according to the procedure outlined in section 4.3. […]

Regarding `Cn1nc(C(C)(C)C)cc1NC(=O)Cc1ccc(Nc2cc(Nc3ccc(S(C)(=O)=O)cc3)ncn2)cc1` [13a, 2-(4-(6-(4-(Methylsulfonyl)phenylamino)pyrimidin-4-ylamino)phenyl)-N-(3-tert-butyl-1-methyl-1H-pyrazol-5-yl)acetamide], the “effect of an increase in ATP concentration on FLT3 IC50” value (5-160 µM ATP, 60 minutes pre-incubation, p > 0.05) is reported as “did not cause a statistically significant increase”. The mechanism of inhibition result (from pre-incubation and ATP variation studies) was “non-competitive, Type-II kinase inhibitor”. The “change of FLT3 IC50 from no incubation to a 90-minute pre-incubation” value (p < 0.05) is on record as “statistically significant decrease”. In addition, for the setting “pre-incubation 1-90 minutes”, the “pre-incubation required to reach maximal inhibition of the FLT3 kinase” value is “approximately 60 minutes”.
